Results from paper PMC10141580, “Cyclic Dichalcogenides Extend the Reach of Bioreductive Prodrugs to Harness Thiol/Disulfide Oxidoreductases: Applications to seco-Duocarmycins Targeting the Thioredoxin System” (ACS Central Science, 2023).
“And” between values parts separate entries of the source, which are not always exact repeats. Equal entries are not always repeated. Where two headings read alike, the source gives them in different places.

Tested on: NCI-60 standardized human tumor cell line panel
Test: cells
Type: cell-based

SMILES: COc1cc2cc(C(=O)N3C[C@@H](CCl)c4c3cc(OC(=O)N(CCC(=O)N3CCN(C)CC3)C3CCCCC3)c3ccccc43)[nH]c2c(OC)c1OC [P-CC60-CBI-TMI]
- NCI-60 screening: Log(GI50): -5.81 and -5.62
- NCI-60 screening: Log(GI50) (786-0 (RE) cell line, log10 of GI50 in M): -5.76
- GI50 (786-0 (RE) cell line, read-out: NCI-60 screening: Raw GI50): 1700 nM
- GI50 (786-0, read-out: GI50): 1700 nM
- NCI-60 screening: Log(GI50) (A498 (RE) cell line, log10 of GI50 in M): -5.56
- GI50 (A498 (RE) cell line, read-out: NCI-60 screening: Raw GI50): 2800 nM
- GI50 (A498, read-out: GI50): 2800 nM
- GI50 (A549/ATCC, read-out: GI50): 2000 nM
- NCI-60 screening: Log(GI50) (ACHN (RE) cell line, log10 of GI50 in M): -6.31
- GI50 (ACHN, read-out: GI50): 490 nM
- GI50 (BT-549, read-out: GI50): 1600 nM
- NCI-60 screening: Log(GI50) (CAKI-1 (RE) cell line, log10 of GI50 in M): -5.83
- GI50 (CAKI-1 (RE) cell line, read-out: NCI-60 screening: Raw GI50): 1500 nM
- GI50 (CAKI-1, read-out: GI50): 1500 nM
- GI50 (CCRF-CEM, read-out: GI50): 990 nM
- GI50 (COLO 205, read-out: GI50): 1400 nM
- NCI-60 screening: Log(GI50) (DU-145 (PR) cell line, log10 of GI50 in M): -6.34
- GI50 (DU-145, read-out: GI50): 460 nM
- GI50 (EKVX, read-out: GI50): 1900 nM
- GI50 (HCC-2998, read-out: GI50): 1500 nM
- GI50 (HCT-15, read-out: GI50): 1700 nM
- GI50 (HCT-116, read-out: GI50): 1500 nM
- GI50 (HL-60(TB), read-out: GI50): 750 nM
- GI50 (HOP-62, read-out: GI50): 590 nM
- GI50 (HOP-92, read-out: GI50): 2500 nM
- GI50 (HT29, read-out: GI50): 1500 nM
- NCI-60 screening: Log(GI50) (IGROV1 (OV) cell line, log10 of GI50 in M): -5.64
- GI50 (IGROV1 (OV) cell line, read-out: NCI-60 screening: Raw GI50): 2300 nM
- GI50 (IGROV1, read-out: GI50): 2300 nM
- GI50 (K-562, read-out: GI50): 680 nM
- GI50 (KM12, read-out: GI50): 2100 nM
- GI50 (LOX IMVI, read-out: GI50): 1100 nM
- GI50 (M14, read-out: GI50): 1500 nM
- GI50 (MALME-3M, read-out: GI50): 1600 nM
- GI50 (MCF7, read-out: GI50): 320 nM
- GI50 (MDA-MB-435, read-out: GI50): 1800 nM
- GI50 (MDA-MB-468, read-out: GI50): 690 nM
- GI50 (MOLT-4, read-out: GI50): 590 nM
- GI50/IC50, mean (NCI-60 vs ProliFiler, 19 overlapping cell lines): 4.6
- GI50 (NCI-H23, read-out: GI50): 470 nM
- GI50 (NCI-H226, read-out: GI50): 1400 nM
- NCI-60 screening: Log(GI50) (NCI-H460 (LC) cell line, log10 of GI50 in M): -6.29
- GI50 (NCI-H460, read-out: GI50): 510 nM
- NCI-60 screening: Log(GI50) (NCI-H522 (LC) cell line, log10 of GI50 in M): -5.77
- GI50 (NCI-H522 (LC) cell line, read-out: NCI-60 screening: Raw GI50): 1700 nM
- GI50 (NCI-H522, read-out: GI50): 1700 nM
- NCI-60 screening: Log(GI50) (OVCAR-3 (OV) cell line, log10 of GI50 in M): -5.68
- GI50 (OVCAR-3 (OV) cell line, read-out: NCI-60 screening: Raw GI50): 2100 nM
- GI50 (OVCAR-3, read-out: GI50): 2100 nM
- NCI-60 screening: Log(GI50) (OVCAR-4 (OV) cell line, log10 of GI50 in M): -5.63
- GI50 (OVCAR-4 (OV) cell line, read-out: NCI-60 screening: Raw GI50): 2300 nM
- GI50 (OVCAR-4, read-out: GI50): 2300 nM
- NCI-60 screening: Log(GI50) (OVCAR-5 (OV) cell line, log10 of GI50 in M): -5.29
- GI50 (OVCAR-5, read-out: GI50): 5100 nM
- NCI-60 screening: Log(GI50) (OVCAR-8 (OV) cell line, log10 of GI50 in M): -5.78
- GI50 (OVCAR-8 (OV) cell line, read-out: NCI-60 screening: Raw GI50): 1700 nM
- GI50 (OVCAR-8, read-out: GI50): 1700 nM
- NCI-60 screening: Log(GI50) (PC-3 (PR) cell line, log10 of GI50 in M): -5.5
- GI50 (PC-3, read-out: GI50): 3100 nM
- GI50 (RPMI-8226, read-out: GI50): 1500 nM
- NCI-60 screening: Log(GI50) (RXF 393 (RE) cell line, log10 of GI50 in M): -5.97
- GI50 (RXF 393 (RE) cell line, read-out: NCI-60 screening: Raw GI50): 1100 nM
- GI50 (RXF 393, read-out: GI50): 1100 nM
- GI50 (SF-268, read-out: GI50): 1500 nM
- GI50 (SF-295, read-out: GI50): 1500 nM
- GI50 (SF-539, read-out: GI50): 1300 nM
- GI50 (SK-MEL-5, read-out: GI50): 1600 nM
- GI50 (SK-MEL-28, read-out: GI50): 3600 nM
- NCI-60 screening: Log(GI50) (SK-OV-3 (OV) cell line, log10 of GI50 in M): -5.67
- GI50 (SK-OV-3 (OV) cell line, read-out: NCI-60 screening: Raw GI50): 2200 nM
- GI50 (SK-OV-3, read-out: GI50): 2200 nM
- NCI-60 screening: Log(GI50) (SN12C (RE) cell line, log10 of GI50 in M): -5.92
